In the supplement of paper PMC10307832:

Experiments:
Assay in all cases: relative viability (nuclei count vs DMSO), 5 days (fraction); higher = more cells survive
[1] = compound: NC1(c2ccc(-c3nc4ccn5c(=O)[nH]nc5c4cc3-c3ccccc3)cc2)CCC1 [MK-2206] + CS(=O)(=O)CCNCc1ccc(-c2ccc3ncnc(Nc4ccc(OCc5cccc(F)c5)c(Cl)c4)c3c2)o1 [Lapatinib] (partner 2 µM)
How it was run: (§1)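 Each reported value is a median over duplicate plates. It expresses relative viability: treated-well nuclei count divided by vehicle-well nuclei count. Lung cancer cell lines in 1536-well plates were dosed by pin tool a day after seeding, alone with one drug or with a fixed anchor-drug dose plus five library-drug doses (not always all listed) in √10 steps, and nuclei were counted after 5 days.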

[2] = compound: NC1(c2ccc(-c3nc4ccn5c(=O)[nH]nc5c4cc3-c3ccccc3)cc2)CCC1 [MK-2206] + CC(C)C[C@H](NC(=O)[C@H](Cc1ccccc1)NC(=O)c1cnccn1)B(O)O [Bortezomib] (partner 0.002 µM)
How it was run: as §1

[3] = compound: NC1(c2ccc(-c3nc4ccn5c(=O)[nH]nc5c4cc3-c3ccccc3)cc2)CCC1 [MK-2206] + C[C@]1(O)C[C@@H](c2nc(-c3ccc4ccc(-c5ccccc5)nc4c3)c3c(N)nccn32)C1 [Linsitinib] (partner 1 µM)
How it was run: as §1

[4] = compound: CS(=O)(=O)N1CCN(Cc2cc3nc(-c4cccc5[nH]ncc45)nc(N4CCOCC4)c3s2)CC1 [Pictilisib] + CC(C)C[C@H](NC(=O)[C@H](Cc1ccccc1)NC(=O)c1cnccn1)B(O)O [Bortezomib] (partner 0.002 µM)
How it was run: as §1

[5] = compound: CS(=O)(=O)N1CCN(Cc2cc3nc(-c4cccc5[nH]ncc45)nc(N4CCOCC4)c3s2)CC1 [Pictilisib] + NC(=O)Nc1cc(-c2cccc(F)c2)sc1C(=O)N[C@H]1CCCNC1 [AZD7762] (partner 0.2 µM)
How it was run: as §1

Cell Line	relative viability ([1]; first compound 0.01 µM)	relative viability ([1]; first compound 0.03162 µM)	relative viability ([1]; first compound 0.3162 µM)	relative viability ([1]; first compound 1 µM)	relative viability ([2]; first compound 0.01 µM)	relative viability ([2]; first compound 0.03162 µM)	relative viability ([2]; first compound 0.3162 µM)	relative viability ([2]; first compound 1 µM)	relative viability ([3]; first compound 0.01 µM)	relative viability ([3]; first compound 0.03162 µM)	relative viability ([3]; first compound 0.3162 µM)	relative viability ([3]; first compound 1 µM)	relative viability ([4]; first compound 0.02 µM)	relative viability ([4]; first compound 0.06325 µM)	relative viability ([4]; first compound 0.6325 µM)	relative viability ([4]; first compound 2 µM)	relative viability ([5]; first compound 0.02 µM)	relative viability ([5]; first compound 0.06325 µM)	relative viability ([5]; first compound 0.6325 µM)	relative viability ([5]; first compound 2 µM)
NCI-H2009	0.825	1.01	0.936	0.986	0.969	1.03	1.12	0.94	1.15	1.16	1.16	1.02	1.06	1.05	0.871	0.671				
NCI-H661	0.422	0.581	0.503	0.51	0.857	0.864	0.862	0.989	0.583	0.725	0.665	0.541	0.771	0.738	0.616	0.258				
NCI-H520	0.85	0.874	0.415	0.238	0.485	0.675	0.431	0.242	1.13	0.933	0.52	0.542	0.632	0.464	0.291	0.156				
NCI-H1563	0.843	0.911	0.783	0.711	0.869	0.947	0.636	0.768	1.12	1.22	0.797	0.742	0.992	0.839	0.605	0.554				
NCI-H522																	0.967	0.865	0.673	0.571
NCI-H2228	1.12	1.01	0.641	0.373	0.973	1.04	0.643	0.413	0.546	0.677	0.303	0.264	0.915	1.04	0.689	0.528				
LK-2	1.03	1.05	0.863	0.854					0.511	0.641	0.627	0.699					0.357	0.392	0.147	0.0792
NCI-H1299	0.963	0.946	1	1.02	1.04	1.02	1.09	1	0.947	1.08	0.977	0.965	1.02	1.04	1.07	1.05				
NCI-H358	0.47	0.41	0.394	0.376					0.79	0.707	0.542	0.602					0.542	0.521	0.335	0.267
LCLC-103H					1.04	1.03	1.02	1.07	1.08	1.07	1	1.12	1.02	0.982	0.779	0.775	0.803	0.728	0.588	0.456
Calu-6	1.05	1.13	1.09	0.974	0.991	1.08	1.01	1.15		0.961	0.963	0.926	1.09	0.933	0.925	0.894				
